Experimental data as given in ChEMBL document CHEMBL1129213, “Synthesis and structure-activity relationships of potent conformationally restricted retinoid X receptor ligands” (Bioorg Med Chem Lett, 1997).

How the values were obtained:
[1] = biological target: T1, Retinoic acid receptor RXR-alpha (Homo sapiens, UniProt P19793); experiment: Inhibition of [3H]9-cis-RA binding to RXR alpha receptor
T1 sequence (P19793 whole entry): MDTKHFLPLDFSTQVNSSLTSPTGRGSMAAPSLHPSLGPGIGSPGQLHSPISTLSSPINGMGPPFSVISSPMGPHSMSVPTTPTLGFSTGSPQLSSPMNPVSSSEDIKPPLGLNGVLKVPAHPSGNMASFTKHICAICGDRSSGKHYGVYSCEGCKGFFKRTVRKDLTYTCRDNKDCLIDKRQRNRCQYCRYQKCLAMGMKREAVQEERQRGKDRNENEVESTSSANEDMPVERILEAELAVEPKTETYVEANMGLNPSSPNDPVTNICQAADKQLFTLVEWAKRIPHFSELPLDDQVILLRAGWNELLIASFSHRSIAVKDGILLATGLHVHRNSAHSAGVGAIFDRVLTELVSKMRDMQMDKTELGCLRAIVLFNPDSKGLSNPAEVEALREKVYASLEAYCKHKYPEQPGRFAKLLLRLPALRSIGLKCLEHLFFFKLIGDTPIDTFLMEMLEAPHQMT

[2] = biological target: T2, Retinoic acid receptor alpha (Homo sapiens, UniProt P10276); experiment: Transcriptional activation in CV-1 cells expressing retinoic acid receptor RAR alpha; inactive; assay type: functional, cell-based
T2 sequence (P10276 whole entry): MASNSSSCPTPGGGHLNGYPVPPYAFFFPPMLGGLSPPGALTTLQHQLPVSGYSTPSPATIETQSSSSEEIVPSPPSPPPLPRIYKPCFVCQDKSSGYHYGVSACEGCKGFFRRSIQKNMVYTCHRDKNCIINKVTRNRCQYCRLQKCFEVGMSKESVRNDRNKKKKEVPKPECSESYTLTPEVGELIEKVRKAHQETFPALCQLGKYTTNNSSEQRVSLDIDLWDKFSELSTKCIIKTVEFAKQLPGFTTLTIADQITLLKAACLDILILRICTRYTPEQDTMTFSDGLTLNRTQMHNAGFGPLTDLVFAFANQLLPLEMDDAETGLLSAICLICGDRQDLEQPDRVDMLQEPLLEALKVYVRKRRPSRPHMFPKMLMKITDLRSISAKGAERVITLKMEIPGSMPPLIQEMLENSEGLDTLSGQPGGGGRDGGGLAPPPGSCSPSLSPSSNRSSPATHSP

[3] = biological target: T3, Retinoic acid receptor beta (Homo sapiens, UniProt P10826); settings: cv-1
T3 sequence (P10826 whole entry): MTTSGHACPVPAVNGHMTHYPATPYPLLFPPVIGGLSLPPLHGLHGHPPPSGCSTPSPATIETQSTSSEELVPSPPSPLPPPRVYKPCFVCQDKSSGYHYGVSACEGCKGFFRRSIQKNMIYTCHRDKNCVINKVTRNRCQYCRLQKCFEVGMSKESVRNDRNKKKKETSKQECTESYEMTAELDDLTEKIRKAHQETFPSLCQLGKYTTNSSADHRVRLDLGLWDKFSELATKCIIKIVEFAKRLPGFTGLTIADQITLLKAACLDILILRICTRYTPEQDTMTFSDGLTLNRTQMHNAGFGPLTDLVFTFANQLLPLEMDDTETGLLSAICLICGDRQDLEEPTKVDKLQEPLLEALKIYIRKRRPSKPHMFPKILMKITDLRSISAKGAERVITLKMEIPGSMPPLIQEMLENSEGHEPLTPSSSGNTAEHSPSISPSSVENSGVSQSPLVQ

[4] = biological target: T4, Retinoic acid receptor RXR-gamma (Homo sapiens, UniProt P48443); experiment: Inhibition of [3H]9-cis-RA binding to RXR gamma receptor
T4 sequence (P48443 whole entry): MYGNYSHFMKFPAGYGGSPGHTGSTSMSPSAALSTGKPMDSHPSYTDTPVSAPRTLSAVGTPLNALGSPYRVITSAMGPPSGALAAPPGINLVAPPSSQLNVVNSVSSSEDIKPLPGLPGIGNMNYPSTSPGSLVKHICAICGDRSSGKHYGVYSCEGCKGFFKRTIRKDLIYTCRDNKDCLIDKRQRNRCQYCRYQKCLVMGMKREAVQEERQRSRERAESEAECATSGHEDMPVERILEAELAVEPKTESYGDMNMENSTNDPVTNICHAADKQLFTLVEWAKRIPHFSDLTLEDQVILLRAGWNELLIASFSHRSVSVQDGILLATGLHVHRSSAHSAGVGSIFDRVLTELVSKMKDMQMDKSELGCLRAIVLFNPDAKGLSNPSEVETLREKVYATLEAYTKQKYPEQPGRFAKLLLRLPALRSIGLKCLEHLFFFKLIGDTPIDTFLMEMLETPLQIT

[5] = biological target: T3, Retinoic acid receptor beta; experiment: Inhibition of [3H]ATRA binding to RAR beta receptor
[6] = biological target: T5, Retinoic acid receptor RXR-beta (Homo sapiens, UniProt P28702); experiment: Inhibition of [3H]9-cis-RA binding to RXR beta receptor
T5 sequence (P28702 whole entry): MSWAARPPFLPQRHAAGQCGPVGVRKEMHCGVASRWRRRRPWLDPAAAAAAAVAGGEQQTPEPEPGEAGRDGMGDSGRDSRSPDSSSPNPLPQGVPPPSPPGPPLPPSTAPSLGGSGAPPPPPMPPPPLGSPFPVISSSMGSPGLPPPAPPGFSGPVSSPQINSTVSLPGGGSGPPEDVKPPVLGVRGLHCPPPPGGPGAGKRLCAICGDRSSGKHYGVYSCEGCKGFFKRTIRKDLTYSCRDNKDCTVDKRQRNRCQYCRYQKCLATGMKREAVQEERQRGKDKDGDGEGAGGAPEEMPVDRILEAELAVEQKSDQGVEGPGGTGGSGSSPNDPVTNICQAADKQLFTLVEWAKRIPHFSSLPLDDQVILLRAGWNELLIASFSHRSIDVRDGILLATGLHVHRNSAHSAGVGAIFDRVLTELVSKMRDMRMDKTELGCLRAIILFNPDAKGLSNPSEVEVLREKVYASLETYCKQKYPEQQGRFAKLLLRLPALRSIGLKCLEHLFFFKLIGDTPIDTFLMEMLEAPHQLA

[7] = biological target: T5, Retinoic acid receptor RXR-beta; experiment: Transcriptional activation in CV-1 cells expressing retinoid X receptor RXR beta; assay type: functional, cell-based
[8] = biological target: T4, Retinoic acid receptor RXR-gamma; experiment: Transcriptional activation in CV-1 cells expressing retinoid X receptor RXR gamma; assay type: functional, cell-based
[9] = biological target: T2, Retinoic acid receptor alpha; experiment: Inhibition of [3H]ATRA binding to RAR alpha receptor
[10] = biological target: T6, Retinoic acid receptor gamma (Homo sapiens, UniProt P13631); experiment: Inhibition of [3H]ATRA binding to RAR gamma receptor
T6 sequence (P13631 whole entry): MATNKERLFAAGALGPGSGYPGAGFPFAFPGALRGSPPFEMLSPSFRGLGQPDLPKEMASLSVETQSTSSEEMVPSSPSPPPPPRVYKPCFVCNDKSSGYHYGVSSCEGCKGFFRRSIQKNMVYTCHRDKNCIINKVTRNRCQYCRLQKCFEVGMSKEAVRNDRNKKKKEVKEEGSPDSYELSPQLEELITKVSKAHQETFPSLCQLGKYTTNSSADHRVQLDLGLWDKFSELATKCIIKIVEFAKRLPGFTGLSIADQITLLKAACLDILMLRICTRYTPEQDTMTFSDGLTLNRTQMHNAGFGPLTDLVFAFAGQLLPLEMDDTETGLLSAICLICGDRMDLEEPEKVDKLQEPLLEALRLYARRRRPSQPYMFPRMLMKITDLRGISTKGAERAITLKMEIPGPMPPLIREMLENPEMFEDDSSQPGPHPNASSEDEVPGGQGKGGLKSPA

[11] = biological target: T3, Retinoic acid receptor beta; experiment: Transcriptional activation in CV-1 cells expressing retinoic acid receptor RAR beta; assay type: functional, cell-based
[12] = biological target: T6, Retinoic acid receptor gamma; experiment: Transcriptional activation in CV-1 cells expressing retinoic acid receptor RAR gamma; assay type: functional, cell-based
[13] = biological target: T2, Retinoic acid receptor alpha; experiment: Transcriptional activation in CV-1 cells expressing retinoic acid receptor RAR alpha; not active; assay type: functional, cell-based
[14] = biological target: T1, Retinoic acid receptor RXR-alpha; experiment: Transcriptional activation in CV-1 cells expressing retinoid X receptor RXR alpha; assay type: functional, cell-based
[15] = biological target: T6, Retinoic acid receptor gamma; settings: cv-1

For `CC(/C=C/C1(c2cc3c(cc2C)C(C)(C)CCC3(C)C)CC1)=C\C(=O)O`, the Ki [1] was 0.004 µM, the EC50 [2] was “Not Active” and the EC50 [3] was “Not Active”. For the same compound, the Ki [4] was 0.005 µM, the Ki [5] was greater than 1 µM and the Ki [6] was 0.004 µM. It also gave an EC50 [7] of 0.013 µM, an EC50 [8] of 0.007 µM and a Ki [9] greater than 1 µM. It also gave a Ki [10] greater than 1 µM.

With `CC(/C=C/C1(c2cc3c(cc2C)C(C)(C)CCC3(C)C)CCCC1)=C\C(=O)O` the Ki [1] was greater than 1 µM, the Ki [4] was greater than 1 µM and the EC50 [11] was 0.809 µM. For the same compound, the Ki [5] was greater than 1 µM, the EC50 [12] was 1.78 µM and the EC50 [13] was “Not Active”. The Ki [6] was greater than 1 µM, the EC50 [7] was 2 µM and the EC50 [8] was 2.71 µM. It also gave an EC50 [14] of 2.52 µM, a Ki [9] greater than 1 µM and a Ki [10] greater than 1 µM.

In the case of `CC(/C=C/C1(c2ccc3c(c2)C(C)(C)CCC3(C)C)CC1)=C\C(=O)O`, the Ki [1] is reported as 0.003 µM, the Ki [4] is reported as 0.006 µM and the EC50 [11] is reported as 0.287 µM. The Ki [5] was greater than 1 µM, the EC50 [12] was 0.399 µM and the EC50 [13] was “Not Active”. For the same compound, the Ki [6] was 0.007 µM, the EC50 [7] was 0.019 µM and the EC50 [8] was 0.024 µM. It also gave an EC50 [14] of 0.023 µM, a Ki [9] greater than 1 µM and a Ki [10] greater than 1 µM.

`CC(/C=C/C1(c2ccc3c(c2)C(C)(C)CCC3(C)C)CCCC1)=C\C(=O)O` was tested, and the Ki [1] was 0.092 µM, the EC50 [3] was “Not Active” and the Ki [4] was 0.172 µM. For the same compound, the EC50 [15] was “Not Active”, the Ki [5] was greater than 1 µM and the EC50 [13] was “Not Active”. The Ki [6] was 0.124 µM, the EC50 [7] was 0.127 µM and the EC50 [8] was 0.192 µM. The EC50 [14] was 0.051 µM, the Ki [9] was greater than 1 µM and the Ki [10] was greater than 1 µM.

`C=C(c1ccc(C(=O)O)cc1)c1ccc2c(c1)C(C)(C)CCC2(C)C` was tested, and the Ki [1] was 0.15 µM, the Ki [4] was 0.29 µM and the Ki [5] was 0.909 µM. The EC50 [13] was “Not Active”, the Ki [6] was 0.199 µM and the EC50 [7] was 0.486 µM. The EC50 [8] was 0.404 µM, the Ki [9] was 0.944 µM and the Ki [10] was 0.887 µM.
